Results: ChEMBL document CHEMBL1201862, “PubChem BioAssay data set” (2004)
Calls of active or inactive are those of the source.

Assays:
Bcl-2-like protein 1 = Bcl-2-like protein 1 (Homo sapiens, UniProt Q07817); experiment: BCL-XL inhibitors, dose response, selectivity assay for MCL1 inhibitor project, biochemical, fluorescence polarization, 1536-well (AID 2218)
Large T antigen = Large T antigen (Simian virus 40, UniProt P03070); format: functional, Betapolyomavirus macacae;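 also: Confirmatory-stage PubChem screen for compounds that inhibit SV40 T antigen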
Chain of Large T antigen (P03070 whole entry): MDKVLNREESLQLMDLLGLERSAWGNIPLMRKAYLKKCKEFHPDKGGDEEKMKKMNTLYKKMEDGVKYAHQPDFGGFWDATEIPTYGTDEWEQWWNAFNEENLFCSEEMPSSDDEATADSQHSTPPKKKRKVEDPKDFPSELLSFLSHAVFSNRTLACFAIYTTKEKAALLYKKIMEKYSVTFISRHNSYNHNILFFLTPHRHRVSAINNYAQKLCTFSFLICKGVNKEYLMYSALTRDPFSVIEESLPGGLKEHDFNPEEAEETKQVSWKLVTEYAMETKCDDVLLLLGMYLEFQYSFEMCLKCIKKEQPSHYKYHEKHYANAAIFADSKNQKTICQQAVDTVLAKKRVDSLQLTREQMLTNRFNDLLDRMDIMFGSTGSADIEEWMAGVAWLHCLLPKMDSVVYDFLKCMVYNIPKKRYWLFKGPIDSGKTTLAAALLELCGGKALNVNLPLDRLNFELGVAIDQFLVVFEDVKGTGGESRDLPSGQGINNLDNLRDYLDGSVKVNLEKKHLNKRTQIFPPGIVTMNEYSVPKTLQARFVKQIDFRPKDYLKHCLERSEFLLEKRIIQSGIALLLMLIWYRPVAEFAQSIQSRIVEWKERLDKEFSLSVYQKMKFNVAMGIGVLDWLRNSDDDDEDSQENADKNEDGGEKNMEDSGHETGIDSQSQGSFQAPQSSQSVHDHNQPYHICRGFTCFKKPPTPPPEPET

[1] = target: T1, Induced myeloid leukemia cell differentiation protein Mcl-1 (Homo sapiens, UniProt Q07820); experiment: MCL1-BIM BH3 interaction inhibitors, dose response, biochemical, fluorescence polarization, BIM-BH3 peptide, 1536-well (AID 2217)
T1 sequence (Q07820 whole entry): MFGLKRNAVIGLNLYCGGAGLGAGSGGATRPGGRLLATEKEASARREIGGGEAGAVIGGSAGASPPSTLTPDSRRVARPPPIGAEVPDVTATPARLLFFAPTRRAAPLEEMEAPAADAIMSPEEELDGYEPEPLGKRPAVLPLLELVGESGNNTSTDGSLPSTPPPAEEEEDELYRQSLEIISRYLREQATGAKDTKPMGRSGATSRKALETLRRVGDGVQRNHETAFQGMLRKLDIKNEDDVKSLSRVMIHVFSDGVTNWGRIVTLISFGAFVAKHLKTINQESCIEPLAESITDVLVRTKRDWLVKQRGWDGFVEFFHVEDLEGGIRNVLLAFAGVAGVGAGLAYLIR

[2] = target: T2, Low molecular weight phosphotyrosine protein phosphatase (Homo sapiens, UniProt P24666); format: functional; settings: read-out: IC50_Mean;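 also: Dose-response confirmation assay measuring inhibition of LMPTP enzyme activity by fluorescence intensity read-out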
T2 sequence (P24666 whole entry): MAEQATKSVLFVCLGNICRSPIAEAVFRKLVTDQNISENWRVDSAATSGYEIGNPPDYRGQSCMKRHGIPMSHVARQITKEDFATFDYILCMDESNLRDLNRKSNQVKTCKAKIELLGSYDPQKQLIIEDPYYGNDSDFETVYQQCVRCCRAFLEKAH

[3] = target: T3, Zinc finger protein mex-5 (Caenorhabditis elegans, UniProt Q9XUB2); experiment: MEX-5/TCR-2 RNA interaction inhibitors, dose response, biochemical, C. elegans, fluorescence polarization (AID 1960)
T3 sequence (Q9XUB2 whole entry): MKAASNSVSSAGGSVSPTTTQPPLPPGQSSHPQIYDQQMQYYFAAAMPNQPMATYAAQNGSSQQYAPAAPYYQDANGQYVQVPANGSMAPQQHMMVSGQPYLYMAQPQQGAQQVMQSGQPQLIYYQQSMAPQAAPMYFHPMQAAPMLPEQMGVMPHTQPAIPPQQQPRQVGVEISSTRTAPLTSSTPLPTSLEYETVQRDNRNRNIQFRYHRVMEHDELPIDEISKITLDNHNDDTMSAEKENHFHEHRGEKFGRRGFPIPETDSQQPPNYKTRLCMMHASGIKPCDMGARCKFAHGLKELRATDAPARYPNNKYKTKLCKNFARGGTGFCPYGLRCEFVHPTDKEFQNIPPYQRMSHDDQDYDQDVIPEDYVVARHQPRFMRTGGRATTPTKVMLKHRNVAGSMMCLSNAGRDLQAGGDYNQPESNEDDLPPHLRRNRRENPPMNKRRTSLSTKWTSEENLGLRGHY

[4] = target: T4, RNA-binding protein pos-1 (Caenorhabditis elegans, UniProt G5EF15); experiment: inhibitors of POS-1/mex-3 RNA binding, dose response, biochemical, fluorescence polarization (AID 1964);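 also: purified POS-1 fused to maltose binding protein made in E. coli; potency of compounds blocking POS-1 binding to fluorescent RNA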
T4 sequence (G5EF15 whole entry): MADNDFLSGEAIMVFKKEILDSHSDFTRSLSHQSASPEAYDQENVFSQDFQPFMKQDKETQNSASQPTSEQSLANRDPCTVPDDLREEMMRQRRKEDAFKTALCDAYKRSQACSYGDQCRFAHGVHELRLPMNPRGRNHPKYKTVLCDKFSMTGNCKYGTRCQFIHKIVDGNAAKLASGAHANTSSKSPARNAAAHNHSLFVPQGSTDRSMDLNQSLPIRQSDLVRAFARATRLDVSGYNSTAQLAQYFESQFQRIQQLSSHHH

[5] = inhibitors of intracellular T. cruzi replication, confirmation, NIH3T3 host cells, beta-gal luminescence (AID 2044); format: functional, cell-based;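 also: intracellular parasites grown in NIH/3T3 mouse fibroblasts as host cells; luminescent beta-galactosidase reporter signal from transgenic T. cruzi replicating inside host cells; inhibitors lower the luminescence signal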
[6] = cytotoxicity toward NIH3T3 fibroblasts, dose response, counter-screen, cell-based, ATP luminescence, mouse fibroblasts (AID 2010); format: functional;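 also: cells exposed to compound for about 90 hours before reading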
[7] = target: T5, Neuropeptide Y receptor type 2 (Homo sapiens, UniProt P49146); format: functional, cell-based;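 also: HEK293 cells expressing the receptor and a CNG channel; stimulus was NPY near EC95 followed by isoproterenol to raise cAMP; antagonist potency measured as restoring cAMP signal that NPY suppresses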
T5 sequence (P49146 whole entry): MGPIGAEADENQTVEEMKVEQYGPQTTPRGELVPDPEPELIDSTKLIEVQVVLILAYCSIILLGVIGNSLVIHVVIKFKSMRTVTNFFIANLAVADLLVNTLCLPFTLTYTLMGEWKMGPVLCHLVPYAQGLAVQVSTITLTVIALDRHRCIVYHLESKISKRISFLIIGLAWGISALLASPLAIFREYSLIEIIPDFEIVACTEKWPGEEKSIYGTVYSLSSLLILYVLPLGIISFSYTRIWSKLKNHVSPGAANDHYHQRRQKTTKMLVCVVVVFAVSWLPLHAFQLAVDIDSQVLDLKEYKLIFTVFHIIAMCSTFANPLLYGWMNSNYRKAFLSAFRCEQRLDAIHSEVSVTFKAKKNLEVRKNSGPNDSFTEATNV

[8] = target: T6, Neuropeptide Y receptor type 1 (Homo sapiens, UniProt P25929); format: functional;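 also: HEK293 cells with a CNG channel challenged with NPY then isoproterenol; potency as antagonist that reverses NPY suppression of cAMP signal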
T6 sequence (P25929 whole entry): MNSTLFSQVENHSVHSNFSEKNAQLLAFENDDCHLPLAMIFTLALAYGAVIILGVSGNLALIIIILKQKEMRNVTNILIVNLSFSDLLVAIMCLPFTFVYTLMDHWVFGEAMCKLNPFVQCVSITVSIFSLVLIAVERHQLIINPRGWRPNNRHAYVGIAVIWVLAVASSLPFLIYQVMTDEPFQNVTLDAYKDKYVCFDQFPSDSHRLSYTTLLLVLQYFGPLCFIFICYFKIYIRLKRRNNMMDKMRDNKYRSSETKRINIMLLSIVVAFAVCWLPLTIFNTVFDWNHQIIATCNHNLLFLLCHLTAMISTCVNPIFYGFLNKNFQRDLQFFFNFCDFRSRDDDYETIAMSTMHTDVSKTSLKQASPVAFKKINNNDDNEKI

Estrogen receptor beta = Estrogen receptor beta (Homo sapiens, UniProt Q92731); experiment: ERβ–SRC-3 coactivator interaction inhibitors, confirmation, orthogonal assay, biochemical, ELISA, streptavidin-HRP readout (AID 1060)
Chain of Estrogen receptor beta (Q92731 whole entry): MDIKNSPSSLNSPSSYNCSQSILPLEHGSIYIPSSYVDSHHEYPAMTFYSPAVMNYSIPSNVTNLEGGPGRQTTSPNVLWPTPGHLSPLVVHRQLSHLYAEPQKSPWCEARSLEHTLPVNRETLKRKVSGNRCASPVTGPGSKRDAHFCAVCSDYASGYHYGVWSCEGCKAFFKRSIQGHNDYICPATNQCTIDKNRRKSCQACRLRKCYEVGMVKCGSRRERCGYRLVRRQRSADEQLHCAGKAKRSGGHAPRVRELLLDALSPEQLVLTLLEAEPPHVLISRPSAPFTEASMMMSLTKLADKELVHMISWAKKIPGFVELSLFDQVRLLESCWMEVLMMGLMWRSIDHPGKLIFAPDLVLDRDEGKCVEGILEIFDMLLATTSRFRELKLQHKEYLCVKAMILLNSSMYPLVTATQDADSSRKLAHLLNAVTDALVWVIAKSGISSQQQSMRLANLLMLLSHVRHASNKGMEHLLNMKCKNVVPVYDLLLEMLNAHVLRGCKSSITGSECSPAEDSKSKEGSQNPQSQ

Bcl-2-like protein 10 = target: T7, Bcl-2-like protein 10 (Homo sapiens, UniProt Q9HD36); experiment: displacers of TR3 peptide from Bcl-B, primary screen, selectivity assay for Bfl-1 inhibitor project, biochemical, fluorescence polarization, FITC-TR3 peptide (AID 748);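 also: fluorescence polarization from a fluorescein-labelled TR3 peptide binding purified Bcl-B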
T7 sequence (Q9HD36 whole entry): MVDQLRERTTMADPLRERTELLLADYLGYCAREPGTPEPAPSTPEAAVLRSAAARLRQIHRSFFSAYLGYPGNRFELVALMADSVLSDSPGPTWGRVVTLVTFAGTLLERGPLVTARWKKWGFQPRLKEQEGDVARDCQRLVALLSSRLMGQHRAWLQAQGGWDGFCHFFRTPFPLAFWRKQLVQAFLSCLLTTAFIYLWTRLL

Protein Tat = target: T8, Protein Tat (Human immunodeficiency virus type 1 group M subtype B (isolate HXB2)(HIV-1), UniProt P04608); format: functional;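 also: tat binding to TAR RNA read out by fluorescence polarization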
T8 sequence (P04608 whole entry): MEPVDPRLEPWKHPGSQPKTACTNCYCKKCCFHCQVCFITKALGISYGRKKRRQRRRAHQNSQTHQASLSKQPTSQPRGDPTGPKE

Genome polyprotein = Genome polyprotein (dengue virus type 2, UniProt P29990); experiment: Dengue-2 NS5 methyltransferase inhibitors, primary screen, biochemical, confirmation dose response (AID 588689); format: functional
Chain of Genome polyprotein (P29990 2492-3391 limits assumed): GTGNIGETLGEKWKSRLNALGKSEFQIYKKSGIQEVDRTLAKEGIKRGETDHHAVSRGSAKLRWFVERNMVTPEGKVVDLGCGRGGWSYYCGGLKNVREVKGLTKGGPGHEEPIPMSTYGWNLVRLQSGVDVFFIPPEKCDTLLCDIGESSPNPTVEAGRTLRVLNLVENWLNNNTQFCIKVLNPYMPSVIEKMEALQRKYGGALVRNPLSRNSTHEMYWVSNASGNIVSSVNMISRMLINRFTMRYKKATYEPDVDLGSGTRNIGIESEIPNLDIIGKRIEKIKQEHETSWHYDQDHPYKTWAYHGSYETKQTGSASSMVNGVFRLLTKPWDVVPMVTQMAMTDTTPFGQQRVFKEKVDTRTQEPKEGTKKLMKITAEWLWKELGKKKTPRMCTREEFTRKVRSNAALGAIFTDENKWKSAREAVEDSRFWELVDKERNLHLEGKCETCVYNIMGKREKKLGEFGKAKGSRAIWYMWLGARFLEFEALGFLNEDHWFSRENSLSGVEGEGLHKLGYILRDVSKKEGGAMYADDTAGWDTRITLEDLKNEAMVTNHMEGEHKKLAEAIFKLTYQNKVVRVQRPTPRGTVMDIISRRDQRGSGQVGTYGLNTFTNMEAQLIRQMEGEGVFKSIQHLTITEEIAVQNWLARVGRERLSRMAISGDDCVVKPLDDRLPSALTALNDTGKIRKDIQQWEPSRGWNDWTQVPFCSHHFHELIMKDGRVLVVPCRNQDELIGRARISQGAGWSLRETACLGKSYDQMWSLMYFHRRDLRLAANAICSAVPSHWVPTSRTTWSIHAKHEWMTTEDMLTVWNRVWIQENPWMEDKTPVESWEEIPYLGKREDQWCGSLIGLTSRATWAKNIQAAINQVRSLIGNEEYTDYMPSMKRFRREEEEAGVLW

Aminopeptidase N = target: T9, Aminopeptidase N (Plasmodium falciparum FcB1/Columbia, UniProt O96935); experiment: P. falciparum M1AAP inhibitors, biochemical, fluorogenic H-Leu-NHMec substrate, 1536-well (AID 1445); design: species or system Plasmodium falciparum 3D7, 3D7
T9 sequence (O96935 whole entry): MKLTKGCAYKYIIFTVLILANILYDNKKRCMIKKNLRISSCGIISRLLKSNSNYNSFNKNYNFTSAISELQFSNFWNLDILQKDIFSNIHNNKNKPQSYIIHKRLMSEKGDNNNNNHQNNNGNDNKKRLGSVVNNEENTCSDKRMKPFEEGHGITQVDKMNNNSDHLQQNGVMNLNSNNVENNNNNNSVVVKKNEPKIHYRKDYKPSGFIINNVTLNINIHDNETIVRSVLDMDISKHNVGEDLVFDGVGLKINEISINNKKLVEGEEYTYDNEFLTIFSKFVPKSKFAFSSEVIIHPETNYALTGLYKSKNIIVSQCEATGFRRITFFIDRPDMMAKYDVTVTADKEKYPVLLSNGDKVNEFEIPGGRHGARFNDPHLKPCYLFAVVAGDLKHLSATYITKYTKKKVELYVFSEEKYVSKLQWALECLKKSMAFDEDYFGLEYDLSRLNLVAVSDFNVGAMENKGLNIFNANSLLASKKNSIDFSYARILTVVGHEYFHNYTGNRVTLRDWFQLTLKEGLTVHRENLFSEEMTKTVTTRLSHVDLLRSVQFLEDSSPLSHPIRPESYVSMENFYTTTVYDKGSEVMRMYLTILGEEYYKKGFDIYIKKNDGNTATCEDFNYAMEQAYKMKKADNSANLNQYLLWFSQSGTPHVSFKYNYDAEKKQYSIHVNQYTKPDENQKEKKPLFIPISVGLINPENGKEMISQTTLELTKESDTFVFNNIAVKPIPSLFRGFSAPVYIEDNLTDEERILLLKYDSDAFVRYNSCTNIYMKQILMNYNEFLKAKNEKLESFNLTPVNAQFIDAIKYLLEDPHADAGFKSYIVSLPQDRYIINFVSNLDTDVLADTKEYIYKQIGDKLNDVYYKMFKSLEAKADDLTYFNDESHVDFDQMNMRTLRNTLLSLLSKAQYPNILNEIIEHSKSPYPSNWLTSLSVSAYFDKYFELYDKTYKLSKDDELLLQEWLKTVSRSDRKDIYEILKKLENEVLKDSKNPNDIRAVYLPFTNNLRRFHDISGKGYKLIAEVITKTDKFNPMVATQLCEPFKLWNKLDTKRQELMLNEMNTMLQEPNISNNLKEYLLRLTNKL

[9] = target: T1, Induced myeloid leukemia cell differentiation protein Mcl-1; format: functional
[10] = Luminescence Cell-Based Dose Response HTS to Identify Activators of Luciferase Translation or Activity in H4 […] Cells. [Related pubchem assays: 1829 (Project Summary), 1814 (Primary HTS)]; format: functional
[11] = Luminescence Cell-Based Dose Response to Identify Activators of Luciferase Translation or Activity in H4-C Neuroglioblastoma Cells. [Related pubchem assays: 1829 (Project Summary), 1814 (Primary HTS)]; format: functional
H4 = experiment: Luminescence Cell-Based Dose Response HTS to Identify Activators of 5'UTR Stem-Loop Driven Prion Protein mRNA Translation in H4 Neuroglioblastoma Cells. [Related pubchem assays: 1829 (Project Summary), 1814 (Primary HTS)]; format: functional; settings: Homo sapiens
[12] = Luminescence Cell-Based Dose Response to Identify Activators of 5'UTR Stem-Loop Driven Prion Protein mRNA Translation in H4-C Neuroglioblastoma Cells. [Related pubchem assays: 1829 (Project Summary), 1814 (Primary HTS)]; format: functional
[13] = Luminescence Cell-Based Dose Confirmation to Identify Activators of 5'UTR Stem-Loop Driven Alpha-Synuclein mRNA Translation in H4 Neuroglioblastoma Cells. [Related pubchem assays: 1829 (Project Summary), 1814 (Primary HTS)]; format: functional
[14] = Luminescence Cell-Based Dose Confirmation HTS to Identify Activators of 5'UTR Stem-Loop Driven Alpha-Synuclein mRNA Translation in H4 Neuroglioblastoma Cells. [Related pubchem assays: 1829 (Project Summary), 1814 (Primary HTS)]; format: functional
[15] = growth suppression of PTEN-null colon cells, dose response, cell-based, HCT116 PTEN knockout (AID 1047); format: functional;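 also: HCT116 colon tumor cells with PTEN knocked out; cells exposed to compound for 60 hours before readout; potency for loss of cell viability measured by luminescence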
BJ [16] = experiment: cytotoxicity toward Ras-transformed BJeLR fibroblasts, dose response, cell-based, alamar blue fluorescence, cherrypicked samples (AID 2631); format: functional; settings: Homo sapiens;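 also: confirmatory dose-response assay in RAS-dependent BJ fibroblasts engineered with TERT, LT and ST, with cytotoxicity read by fluorescence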
[17] = cytotoxicity toward DRD oncogenic fibroblasts, dose response, cell-based, non-viral oncogenic, luminescence (AID 1934); format: functional; settings: Homo sapiens
[18] = growth suppression of beta-catenin-knockout colon cells, dose response, cell-based, HCT116, human colon tumor (AID 1045); format: functional;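 also: HCT116 colon tumor cells with beta catenin knocked out; cells exposed to compound for 60 hours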
BJ [19] = experiment: cytotoxicity toward BJ-TERT-LT-ST fibroblasts, dose response, cell-based, RAS-independent, luminescence (AID 1935); format: functional; settings: Homo sapiens;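 also: BJ fibroblasts immortalized with TERT plus LT and ST oncogenes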
BJ [20] = experiment: cells; format: functional, cell-based; settings: Homo sapiens
BJ [21] = experiment: cytotoxicity toward BJ-TERT fibroblasts, dose response, cell-based, RAS-independent, luminescence (AID 1933); format: functional; settings: Homo sapiens

Chain of Bcl-2-like protein 1 (Q07817 whole entry): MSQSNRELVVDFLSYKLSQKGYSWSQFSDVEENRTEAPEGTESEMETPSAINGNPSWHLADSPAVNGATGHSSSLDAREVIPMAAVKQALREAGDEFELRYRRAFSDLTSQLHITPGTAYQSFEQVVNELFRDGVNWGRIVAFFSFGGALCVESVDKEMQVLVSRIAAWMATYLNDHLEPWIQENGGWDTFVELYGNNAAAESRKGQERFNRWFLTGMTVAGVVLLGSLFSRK

Cc1ccc(-c2cc(-c3ccco3)c(C#N)c(=O)[nH]2)cc1
IC50 (Bcl-2-like protein 1): > 109 µM (not active) | IC50 (Large T antigen): 64.5 µM (active) | IC50 [1]: > 12.1 µM (not active) | IC50 [2]: 49.2 µM (inactive) | EC50 [3]: 8.36 µM (inconclusive) | EC50 [4]: 26.1 µM (active)

CN(C)CCCSc1nc(-c2ccccc2)nc2c1CCC2
EC50 [5]: < 0.1 µM (active) | EC50 [6]: > 60 µM (not active) | IC50 [7]: 18.2 µM (not active) | EC50 (cells): 0.12 µM (active) | IC50 [8]: 7.33 µM (active)

O=C(CSc1nnc(-c2ccco2)c(-c2ccco2)n1)Nc1ccccc1
IC50 (Estrogen receptor beta): < 0.023 µM (not active) | IC50 (Bcl-2-like protein 10): 15.3 µM (active) | IC50 (Protein Tat): 5.16 µM (inconclusive) | IC50 (Genome polyprotein): > 100 µM (active) | IC50 (Aminopeptidase N): 97.7 µM (active) | IC50 [9]: 3.11 µM (active)

Cc1ccc(-c2cc(NC(=O)c3ccccc3)on2)cc1
EC50 [10]: 0.137 µM (active) | EC50 [11]: 0.334 µM (active) | EC50 (H4): 9.75 µM (active) | EC50 [12]: 0.632 µM (active) | EC50 [13]: 0.463 µM (active) | EC50 [14]: < 0.1 µM (active)

O=C(/C=C/c1cccc2ccccc12)c1ccncc1
EC50 [15]: 8.54 µM (active) | EC50 (BJ [16]): > 133 µM (inactive) | IC50 [7]: 4.95 µM (active) | EC50 [17]: 16.5 µM (active) | EC50 [18]: 5.26 µM (active) | EC50 (BJ [19]): > 75 µM (inconclusive) | EC50 (BJ [20]): > 150 µM (inconclusive) | IC50 [8]: 5.47 µM (active) | EC50 (BJ [21]): 10.2 µM (inconclusive)

Clc1ccccc1/C=N/Nc1cc(N2CCOCC2)ncn1
EC50 [11]: 0.394 µM (active) | EC50 (H4): 9.34 µM (active) | EC50 [12]: 1.05 µM (active) | EC50 [13]: 0.564 µM (active) | EC50 [14]: < 0.1 µM (active)
